Test results taken from US11312724B2 (ASCENTAGE PHARMA (SUZHOU) CO., LTD., priority 2021, dated 2022).

How the values were obtained:
[1] = tested on: MIA PaCa-2 cell; assay: Cell proliferation assay (Celltiter-Glo), MIA PaCa-2; type: cell-based; details: Homo sapiens, MIA PaCa-2, 72 h, 3 days
Method in brief: (§1)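 Cells grew in RPMI-1640 with 10% FBS at 37 °C, 5% CO2, seeded at 5000/well during exponential growth. Compounds were tested at 0–10 μM in a 3-fold series for 3 days. Viability was read by CellTiter-Glo luminescence, and IC50 was taken from dose-response curves.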

[2] = tested on: NCI-H358 cell; assay: Cell proliferation assay (Celltiter-Glo), NCI-H358; type: cell-based; details: Homo sapiens, NCI-H358, 72 h, 3 days
Method in brief: as §1

[3] = Mouse PK studies, single i.v. and p.o. dose; type: in vivo, CD1 mice; details: male, CD1, mouse, plasma; for half-life: terminal half-life

| IC50 [1] [nM] | IC50 [2] [nM] | AUC(0-inf) ([3]; 2 mg/kg, IV 2 mpk) [ng·h/mL] | AUC(0-t) ([3]; 2 mg/kg, IV 2 mpk) [ng·h/mL] | MRT inf ([3]; 2 mg/kg, IV 2 mpk) [h] | half-life ([3]; 2 mg/kg, IV 2 mpk) [h] | Vd ([3]; 2 mg/kg, IV 2 mpk, read-out: Vss) [L/kg] | AUC(0-inf) ([3]; 10 mg/kg, PO 10 mpk) [ng·h/mL] | AUC(0-t) ([3]; 10 mg/kg, PO 10 mpk) [ng·h/mL] | Cmax ([3]; 10 mg/kg, PO 10 mpk) [ng/mL] | MRT inf ([3]; 10 mg/kg, PO 10 mpk) [h] | half-life ([3]; 10 mg/kg, PO 10 mpk) [h] | bioavailability ([3]; 10 mg/kg, PO 10 mpk vs IV 2 mpk) [%] | SMILES |
| --- | --- | --- | --- | --- | --- | --- | --- | --- | --- | --- | --- | --- | --- |
| 1.1 | 2.5 | 1200 | 1200 | 0.824 | 1.45 | 1.37 | 2900 | 2650 | 856 | 3.26 | 2.39 | 48.2 | C=CC(=O)N1CCN(c2nc(OC[C@@H]3CCCN3C)nc3c2CC[C@@]2(CCc4c(Cl)cccc42)C3)C[C@@H]1CC#N [Cpd. No. 53, 2-((S)-1-acryloyl-4-((R)-4-chloro-2′-(((S)-1-methylpyrrolidin-2-yl)methoxy)-2,3,5′,8′-tetrahydro-6′H-spiro[indene-1,7′-quinazolin]-4′-yl)piperazin-2-yl)acetonitrile] |
| 16 | 28 | – | – | – | – | – | – | – | – | – | – | – | C=C(F)C(=O)N1CCN(c2nc(OC[C@@H]3CCCN3C)nc3c2CC[C@@]2(CCc4c(Cl)cccc42)C3)C[C@@H]1CC#N [Cpd. No. 54, 2-((S)-4-((R)-4-chloro-2′-(((S)-1-methylpyrrolidin-2-yl)methoxy)-2,3,5′,8′-tetrahydro-6′H-spiro[indene-1,7′-quinazolin]-4′-yl)-1-(2-fluoroacryloyl)piperazin-2-yl)acetonitrile] |
| 1.8 | 2.2 | – | – | – | – | – | – | – | – | – | – | – | C=CC(=O)N1CCN(c2nc(OC[C@@H]3CCCN3C)nc3c2CCC2(COCc4c(F)cccc42)C3)C[C@@H]1CC#N (some centres unmarked) [compound 26] |
